Consider 66 compounds from the Kinase Knowledgebase extract (Sharma et al. 2016).

Values joined by “and” are separate entries in the source; they are usually repeats but may differ in a detail not shown here. Equal entries are not always repeated.

In one experiment the target is PIK3CB;PIK3CA (UniProt P42338). Put plainly: PI3-Kinase alpha/beta Inhibition.
The next experiment addresses PIK3CG (UniProt P48736). Put plainly: PIK3-gamma Enzyme Assay.

PIK3CG, sequence (P48736 whole entry, looked up): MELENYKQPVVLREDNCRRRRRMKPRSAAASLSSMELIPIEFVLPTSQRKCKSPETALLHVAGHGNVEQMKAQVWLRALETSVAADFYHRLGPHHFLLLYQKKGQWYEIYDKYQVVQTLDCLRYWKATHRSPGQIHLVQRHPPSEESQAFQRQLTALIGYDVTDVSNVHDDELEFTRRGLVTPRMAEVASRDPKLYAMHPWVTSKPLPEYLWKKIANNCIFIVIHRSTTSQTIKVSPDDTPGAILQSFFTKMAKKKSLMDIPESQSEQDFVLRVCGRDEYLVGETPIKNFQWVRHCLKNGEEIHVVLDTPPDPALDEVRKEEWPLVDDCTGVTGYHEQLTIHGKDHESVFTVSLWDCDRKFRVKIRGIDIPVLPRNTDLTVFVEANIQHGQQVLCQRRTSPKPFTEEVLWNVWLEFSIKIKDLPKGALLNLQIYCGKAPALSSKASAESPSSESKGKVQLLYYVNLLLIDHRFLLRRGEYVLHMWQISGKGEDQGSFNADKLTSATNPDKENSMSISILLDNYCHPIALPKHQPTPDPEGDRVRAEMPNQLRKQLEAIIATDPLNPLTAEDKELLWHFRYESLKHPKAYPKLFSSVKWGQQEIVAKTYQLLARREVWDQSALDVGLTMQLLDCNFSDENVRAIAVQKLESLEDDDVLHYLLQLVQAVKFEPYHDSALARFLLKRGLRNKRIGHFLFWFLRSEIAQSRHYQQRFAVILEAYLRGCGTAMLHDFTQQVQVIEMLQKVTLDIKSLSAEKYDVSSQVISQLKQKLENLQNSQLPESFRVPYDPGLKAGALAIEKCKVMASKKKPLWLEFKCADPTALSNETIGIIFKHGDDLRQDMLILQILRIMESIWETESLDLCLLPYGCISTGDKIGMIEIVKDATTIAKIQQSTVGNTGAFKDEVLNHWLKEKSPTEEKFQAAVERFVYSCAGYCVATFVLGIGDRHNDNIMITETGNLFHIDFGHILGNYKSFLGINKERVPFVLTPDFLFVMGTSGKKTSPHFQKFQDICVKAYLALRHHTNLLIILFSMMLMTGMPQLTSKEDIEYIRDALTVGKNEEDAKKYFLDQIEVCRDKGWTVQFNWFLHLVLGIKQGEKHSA

`COC(=O)c1cccc(Oc2cccc3c(=O)cc(N4CCOCC4)[nH]c23)c1` had an IC50 on PIK3CB;PIK3CA of 500 nM. As for `CC(C)(C)c1ccc(COc2cccn3c(=O)cc(N4CCOCC4)nc23)cc1`, the IC50 against PIK3CB;PIK3CA is 7500 nM. `O=c1cc(N2CCOCC2)oc2c(OCc3cccnc3)cccc12`: on PIK3CB;PIK3CA, the IC50 was 1000 nM. Still for that read-out and setting: then `O=c1cc(N2CCOCC2)[nH]c2c(Cc3ccc(F)cc3)cccc12`, with 1000 nM; and `O=c1cc(N2CCOCC2)oc2c(Oc3ccccc3)cccc12`, with 100 nM and 50 nM. Still for that read-out and setting: to `O=c1cc(N2CCOCC2)[nH]c2c(Oc3ccccc3F)cccc12` belongs 150 nM; to `Cc1cc(Nc2ccccc2C(F)(F)F)c2nc(N3CCOCC3)cc(=O)n2c1`, 5000 nM; to `O=c1cc(N2CCOCC2)nc2c(OCc3cccc(Cl)c3)cccn12`, 500 nM. `Cc1cc(Nc2ccc(Cl)cc2)c2nc(N3CCOCC3)cc(=O)n2c1` had a half-maximal inhibitory concentration (IC50) against PIK3CB;PIK3CA of 1000 nM.

Take `O=c1cc(N2CCOCC2)[nH]c2c(Cc3ccccc3)cccc12`: the IC50 on PIK3CB;PIK3CA came out at 2000 nM. The same measure, in the same setting: then `O=c1cc(N2CCOCC2)nc2c(OCc3cccnc3)cccn12`, with 10000 nM; and `Cc1cc(Oc2cccc3c(=O)cc(N4CCOCC4)oc23)ccc1F`, with 100 to 150 nM; and `Cc1cc(N[C@H](C)c2ccccc2)c2nc(N3CCOCC3)cc(=O)n2c1`, with 200 nM. `Cc1cc(F)ccc1Oc1cccc2c(=O)cc(N3CCOCC3)[nH]c12` came in with a half-inhibitory concentration (IC50) on PIK3CB;PIK3CA of 20 nM. In turn, `Cc1cc(C2CCN(C)C2=O)c2nc(N3CCOCC3)cc(=O)n2c1` (configuration not stated) yielded an IC50 at PIK3CB;PIK3CA of 20000 nM. On the same count and under the same terms, to `Cc1cc(N[C@@H](C)c2ccccc2)c2nc(N3CCOCC3)cc(=O)n2c1` belongs 1000 nM; to `Cc1cc(NCc2ccccn2)c2nc(N3CCOCC3)cc(=O)n2c1`, 500 nM; to `O=c1cc(N2CCOCC2)oc2c(O)cccc12`, 25000 nM. Still for that read-out and setting: then `Cc1ccc(Oc2cc(C)cn3c(=O)cc(N4CCOCC4)nc23)cc1`, with 1000 nM; and `Cc1cc(Oc2cccn3c(=O)cc(N4CCOCC4)nc23)ccc1F`, with 750 nM; and `Cc1c(Oc2ccccc2)ccc2c(=O)cc(N3CCOCC3)oc12`, with 5000 nM and 10000 nM and 2000 nM. Still for that read-out and setting: then `Cc1cc(Nc2ccc(F)cc2C)c2nc(N3CCOCC3)cc(=O)n2c1`, with 200 nM; and `Cc1cc(NCC2CCNCC2)c2nc(N3CCOCC3)cc(=O)n2c1`, with 1000 nM; and `O=c1cc(N2CCOCC2)nc2c(-c3ccccc3)cccn12`, with 10500 nM. Turning to `Cc1cc(NCc2ccncc2)c2nc(N3CCOCC3)cc(=O)n2c1`, the IC50 against PIK3CB;PIK3CA came to 500 nM. The compound `COc1cccc(COc2cccn3c(=O)cc(N4CCOCC4)nc23)c1` returned a half-inhibitory concentration (IC50) against PIK3CB;PIK3CA of 1000 nM.

For the compound `Cc1ccc(Cc2cccc3c(=O)cc(N4CCOCC4)[nH]c23)cc1`, the half-maximal inhibitory concentration (IC50) at PIK3CB;PIK3CA turned out to be 2000 nM. Same read-out and setting: to `O=c1cc(N2CCOCC2)oc2c(-c3ccc(F)cc3)cccc12` belongs 1000 nM. Still for that read-out and setting: to `O=c1cc(N2CCOCC2)oc2cc(/C=C/c3ccccc3)ccc12` belongs 10000 nM; to `O=c1cc(N2CCOCC2)nc2c(Cc3ccccc3)cccn12`, 1500 nM; to `O=c1cc(N2CCOCC2)[nH]c2c(Oc3ccc(F)cc3)cccc12`, 50 nM. Consider `Cc1cc(Nc2ccccc2O)c2nc(N3CCOCC3)cc(=O)n2c1`, for which the half-maximal inhibitory concentration (IC50) against PIK3CB;PIK3CA was 200 nM. On the same count and under the same terms, then `Cc1cc(Cl)ccc1Oc1cccc2c(=O)cc(N3CCOCC3)[nH]c12`, with 1000 nM.

The compound `O=C(O)c1cccc(Oc2cccc3c(=O)cc(N4CCOCC4)[nH]c23)c1` gave an IC50 at PIK3CB;PIK3CA of 500 nM. On PIK3CB;PIK3CA, `O=c1cc(N2CCOCC2)oc2c(-c3ccccc3Cl)cccc12` came in with an IC50 of 500 nM. For `O=c1cc(N2CCOCC2)[nH]c2c(Sc3ccccc3)cccc12`, the IC50 against PIK3CB;PIK3CA was 50 nM. Still for that read-out and setting: then `O=c1cc(N2CCOCC2)nc2c(OCc3ccccc3)cccn12`, with 500 nM; and `Cc1cc(-c2ccsc2)c2nc(N3CCOCC3)cc(=O)n2c1`, with 1000 nM; and `Cc1cc(CNc2ccccc2)c2nc(N3CCOCC3)cc(=O)n2c1`, with 50 nM. Still for that read-out and setting: to `O=c1cc(N2CCOCC2)nc2c(Oc3ccccc3)cccn12` belongs 1000 nM; to `Cc1cc(Nc2ncccc2C)c2nc(N3CCOCC3)cc(=O)n2c1`, 10000 nM; to `Cc1ccc(Oc2cccc3c(=O)cc(N4CCOCC4)[nH]c23)cc1`, 500 nM. The same measure, in the same setting: to `Cc1cc(CNc2ccc(F)cc2C)c2nc(N3CCOCC3)cc(=O)n2c1` belongs 10 nM; to `Cc1cc(Nc2ccncc2)c2nc(N3CCOCC3)cc(=O)n2c1`, 1000 nM; to `Cc1c(OCc2ccccc2)ccc2c(=O)cc(N3CCOCC3)oc12`, 10000 nM. The compound `O=c1cc(N2CCOCC2)nc2c(OCc3ccccn3)cccn12` yielded a concentration for half-maximal inhibition (IC50) on PIK3CB;PIK3CA of 10000 nM.

`Cc1cc(NCc2ccccc2Cl)c2nc(N3CCOCC3)cc(=O)n2c1`: the IC50 at PIK3CB;PIK3CA amounted to 50 nM. Still for that read-out and setting: then `Cc1ccccc1Oc1cccc2c(=O)cc(N3CCOCC3)[nH]c12`, with 50 nM; and `O=c1cc(N2CCOCC2)oc2c(-c3ccccc3C(F)(F)F)cccc12`, with 200 nM. On the same count and under the same terms, then `O=c1cc(N2CCOCC2)oc2cc(OCc3cccnc3)ccc12`, with 2000 nM. In the case of `O=c1cc(N2CCOCC2)[nH]c2c(OCc3ccccc3)cccc12`, the results for the concentration for half-maximal inhibition (IC50) at PIK3CB;PIK3CA and at PIK3CG were 100 nM and 2000 nM, respectively. As to `Cc1cc(NCc2ccccc2)c2nc(N3CCOCC3)cc(=O)n2c1`, the IC50 against PIK3CB;PIK3CA came out at 50 nM. As for `Cc1cc(Nc2ccc(O)cc2)c2nc(N3CCOCC3)cc(=O)n2c1`, the half-maximal inhibitory concentration (IC50) against PIK3CB;PIK3CA came out at 100 nM. For `Cc1cccn2c(=O)cc(N3CCOCC3)nc12`, on PIK3CB;PIK3CA, the IC50 is 11100 nM. Take `O=c1cc(N2CCOCC2)oc2c(Cc3ccccc3)cccc12`: on PIK3CB;PIK3CA, the IC50 stood at 100 nM.

On PIK3CB;PIK3CA, `COc1ccccc1CNc1cc(C)cn2c(=O)cc(N3CCOCC3)nc12` displayed an IC50 of 50 nM. Compound `Cc1cc(-c2ccccc2)c2nc(N3CCOCC3)cc(=O)n2c1` yielded an IC50 against PIK3CB;PIK3CA of 9800 nM.

Regarding `Cc1cccc(Oc2cccc3c(=O)cc(N4CCOCC4)[nH]c23)c1`, the 50% inhibitory concentration (IC50) at PIK3CB;PIK3CA was determined as 50 nM. The same measure, in the same setting: to `Cc1cc(-c2ccccc2C(F)(F)F)c2nc(N3CCOCC3)cc(=O)n2c1` belongs 2000 nM.

Consider `Cc1cc(Nc2ccccc2OCCN(C)C)c2nc(N3CCOCC3)cc(=O)n2c1`, for which, at PIK3CB;PIK3CA, the half-inhibitory concentration (IC50) stood at 2000 nM. The same measure, in the same setting: to `Cc1ccccc1-c1cccc2c(=O)cc(N3CCOCC3)oc12` belongs 2000 nM; to `O=c1cc(N2CCOCC2)[nH]c2c(Oc3ccccc3)cccc12`, 100 nM. `Cc1cc(CCc2ccncc2)c2nc(N3CCOCC3)cc(=O)n2c1`: the half-inhibitory concentration (IC50) against PIK3CB;PIK3CA is 1000 nM. On to `Cc1cc(Nc2ccc(O)cc2C)c2nc(N3CCOCC3)cc(=O)n2c1`, for which, at PIK3CB;PIK3CA, the IC50 worked out at 100 nM. Still for that read-out and setting: then `Cc1cc(NCc2ccc(Cl)cc2)c2nc(N3CCOCC3)cc(=O)n2c1`, with 1000 nM; and `Cc1ccc(S(=O)(=O)Oc2cccc3c(=O)cc(N4CCOCC4)[nH]c23)cc1`, with 1000 nM.
